How the values were obtained:
Experiment in all cases: relative viability (nuclei count vs DMSO), 5 days (fraction); higher = more cells survive
[1] = compound: C1/C(=C\C2=CC=CS2)/C(=O)/C(=C/C3=CC=CS3)/C1 + CCNC(=O)c1noc(-c2cc(C(C)C)c(O)cc2O)c1-c1ccc(CN2CCOCC2)cc1 [Luminespib] (partner 0.01 µM)
Method in brief: (§1)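 Cells from lung cancer lines were seeded into 1536-well plates and, one day later, dosed by pin tool. Treatments were either a single drug or a fixed dose of an anchor drug with five library-drug doses (not always all listed) in √10 steps. After 5 days, nuclei were stained in a one-step fixation (final 0.05% Triton X-100, 1% formaldehyde, 1 ug/ml Hoechst) and counted on 4× images, and relative viability is the treated-to-vehicle nuclei ratio, as the median of duplicate plates.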

TPCA-1 + Decitabine = compound: C1=CC(=CC=C1C2=CC(=C(S2)NC(=O)N)C(=O)N)F [TPCA-1] + Nc1ncn([C@H]2C[C@H](O)[C@@H](CO)O2)c(=O)n1 [Decitabine] (partner 2 µM)
Method in brief: as §1

TPCA-1 + Vorinostat = compound: C1=CC(=CC=C1C2=CC(=C(S2)NC(=O)N)C(=O)N)F [TPCA-1] + O=C(CCCCCCC(=O)Nc1ccccc1)NO [Vorinostat] (partner 1 µM)
Method in brief: as §1

[2] = compound: C[C@]12O[C@H](C[C@]1(O)CO)n1c3ccccc3c3c4c(c5c6ccccc6n2c5c31)CNC4=O [Lestaurtinib] + CC(C)C[C@H](NC(=O)[C@H](Cc1ccccc1)NC(=O)c1cnccn1)B(O)O [Bortezomib] (partner 0.002 µM)
Method in brief: as §1

Row | Cell Line | relative viability ([1]; first compound 0.2 µM) | relative viability ([1]; first compound 0.6325 µM) | relative viability ([1]; first compound 2 µM) | relative viability ([1]; first compound 20 µM) | relative viability (TPCA-1 + Decitabine; first compound 0.04 µM) | relative viability (TPCA-1 + Decitabine; first compound 0.1265 µM) | relative viability (TPCA-1 + Decitabine; first compound 0.4 µM) | relative viability (TPCA-1 + Decitabine; first compound 1.265 µM) | relative viability (TPCA-1 + Decitabine; first compound 4 µM) | relative viability (TPCA-1 + Vorinostat; first compound 0.04 µM) | relative viability (TPCA-1 + Vorinostat; first compound 0.1265 µM) | relative viability (TPCA-1 + Vorinostat; first compound 0.4 µM) | relative viability (TPCA-1 + Vorinostat; first compound 1.265 µM) | relative viability (TPCA-1 + Vorinostat; first compound 4 µM) | relative viability ([2]; first compound 0.005 µM) | relative viability ([2]; first compound 0.01581 µM) | relative viability ([2]; first compound 0.05 µM) | relative viability ([2]; first compound 0.1581 µM) | relative viability ([2]; first compound 0.5 µM) | relative viability ([1]; first compound 6.325 µM)
1 | NCI-H2347 | 0.405 | 0.959 | 0.381 | 0.466 | 0.578 | 0.551 | 0.664 | 0.641 | 0.619 | 0.8 | 0.551 | 0.803 | 0.527 | 0.516 | 0.871 | 1.49 | 1.17 | 0.961 | 0.797 | –
2 | NCI-H2405 | 0.818 | 0.773 | 0.743 | 0.675 | 0.823 | 0.664 | 0.748 | 0.712 | 0.717 | 1.12 | 0.983 | 1.15 | 0.975 | 0.103 | 1 | 1.01 | 0.883 | 0.977 | 0.734 | 0.673
3 | NCI-H3122 | 0.112 | 0.0975 | 0.0926 | 0.086 | 0.424 | 0.404 | 0.424 | 0.496 | 0.455 | 1.34 | 0.814 | 0.955 | 1 | 0.897 | 1.06 | 1.05 | 1.06 | 1.05 | 0.502 | 0.0901
4 | PC-3 [JPC-3] | 0.807 | 0.645 | 0.689 | 0.659 | 0.862 | 0.916 | 0.838 | 0.813 | 0.818 | 0.787 | 0.765 | 0.963 | 0.818 | 0.284 | 0.82 | 0.788 | 0.738 | 0.914 | 0.746 | 0.556
5 | PC-14 | 0.139 | 0.145 | 0.179 | 0.15 | 0.265 | 0.24 | 0.231 | 0.255 | 0.323 | 0.838 | 0.802 | 0.802 | 0.639 | 0.448 | 0.993 | 0.778 | 0.83 | 0.623 | 0.434 | 0.187
6 | RERF-LC-KJ | 1.26 | 1.36 | 1.25 | 1.14 | 0.715 | 0.598 | 0.656 | 0.612 | 0.548 | 0.76 | 0.688 | 0.664 | 0.671 | 0.46 | 1.43 | 1.17 | 0.908 | 0.836 | 0.728 | 1.15
7 | SK-LU-1 | 0.204 | 0.191 | 0.202 | 0.214 | 0.72 | 0.563 | 0.627 | 0.493 | 0.372 | 0.872 | 0.672 | 0.774 | 0.577 | 0.449 | 0.975 | 1.26 | 0.763 | 0.673 | 0.362 | 0.181
8 | SW 1573 | 0.25 | 0.192 | 0.194 | 0.181 | 0.621 | 0.402 | 0.438 | 0.677 | 0.395 | 0.998 | 0.6 | 0.876 | 0.787 | 0.233 | 1.2 | 1.05 | 0.842 | 0.916 | 0.727 | 0.161

Reference: the supplement of paper PMC10307832
